Measured values taken from ChEMBL document CHEMBL1201861, “Genomics of Drug Sensitity in Cancer screening data, Wellcome Trust Sanger Institute”.

Experiments:
Test in all cases: cells
SKG-IIIa = assay type: functional, cell-based, Homo sapiens; conditions: Homo sapiens, SKG-IIIa;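 note: cell growth inhibition, read out with a cell viability assay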
Description: SANGER: Inhibition of human SKG-IIIa cell growth in a cell viability assay.

COR-L105 = assay type: functional, cell-based, Homo sapiens; conditions: Homo sapiens, COR-L105;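 note: cell growth inhibition determined with a viability assay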
Description: SANGER: Inhibition of human COR-L105 cell growth in a cell viability assay.

OCUB-M = assay type: functional, cell-based, Homo sapiens; conditions: Homo sapiens, OCUB-M;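 note: growth inhibition of the cancer cell line, read out through a cell viability assay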
Description: SANGER: Inhibition of human OCUB-M cell growth in a cell viability assay.

NCI-H292 = assay type: functional, cell-based, Homo sapiens; conditions: Homo sapiens, NCI-H292;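 note: growth inhibition of NCI-H292 cells, read out with a cell viability assay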
Description: SANGER: Inhibition of human NCI-H292 cell growth in a cell viability assay.

UO-31 = assay type: functional, cell-based; conditions: Homo sapiens;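 note: cell viability assay measuring inhibition of cell growth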
Description: SANGER: Inhibition of human U031 cell growth in a cell viability assay.

DMS-273 = assay type: functional, cell-based, Homo sapiens; conditions: Homo sapiens, DMS-273
Description: SANGER: Inhibition of human DMS-273 cell growth in a cell viability assay.

LB2518-MEL = assay type: functional, cell-based, Homo sapiens; conditions: Homo sapiens, LB2518-MEL;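 note: growth inhibition of human LB2518-MEL cells, measured with a cell viability assay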
Description: SANGER: Inhibition of human LB2518-MEL cell growth in a cell viability assay.

SiHa = assay type: functional, cell-based, Homo sapiens; conditions: Homo sapiens, SiHa;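 note: Viability-based readout of growth inhibition in SiHa cells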
Description: SANGER: Inhibition of human SiHa cell growth in a cell viability assay.

HuP-T3 = assay type: functional, cell-based, Homo sapiens; conditions: Homo sapiens, HuP-T3;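 note: HuP-T3 cell growth inhibition, read out with a cell viability assay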
Description: SANGER: Inhibition of human HuP-T3 cell growth in a cell viability assay.

U-118-MG = assay type: functional, cell-based, Homo sapiens; conditions: Homo sapiens, U-118-MG
Description: SANGER: Inhibition of human U-118-MG cell growth in a cell viability assay.

MZ1-PC = assay type: functional, cell-based, Homo sapiens; conditions: Homo sapiens, MZ1-PC;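 note: cell viability assay measuring growth inhibition of human MZ1-PC cells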
Description: SANGER: Inhibition of human MZ1-PC cell growth in a cell viability assay.

TCC-SUP = assay type: functional, cell-based, Homo sapiens; conditions: Homo sapiens, TCC-SUP;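 note: growth inhibition of TCC-SUP cells, read out with a cell viability assay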
Description: SANGER: Inhibition of human TCCSUP cell growth in a cell viability assay.

EW-13 = assay type: functional, cell-based; conditions: Homo sapiens;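 note: growth inhibition of EW-13 cells, read out with a cell viability assay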
Description: SANGER: Inhibition of human EW-13 cell growth in a cell viability assay.

HCC70 = assay type: functional, cell-based, Homo sapiens; conditions: Homo sapiens, HCC70;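 note: cell viability assay measuring how strongly the compound suppresses proliferation of HCC70 cells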
Description: SANGER: Inhibition of human HCC70 cell growth in a cell viability assay.

KE-37 = assay type: functional, cell-based; conditions: Homo sapiens;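 note: growth inhibition of KE-37 cells, read out with a cell viability assay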
Description: SANGER: Inhibition of human KE-37 cell growth in a cell viability assay.

WM-115 = assay type: functional, cell-based, Homo sapiens; conditions: Homo sapiens, WM-115
Description: SANGER: Inhibition of human WM-115 cell growth in a cell viability assay.

SF-295 = assay type: functional, cell-based, Homo sapiens; conditions: Homo sapiens, SF-295; read-out: IC50;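 note: growth inhibition of SF-295 cells, read out with a cell viability assay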
Description: SANGER: Inhibition of human SF295 cell growth in a cell viability assay.

NOMO-1 = assay type: functional, cell-based; conditions: Homo sapiens;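 note: growth inhibition of human NOMO-1 cells measured by a cell viability assay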
Description: SANGER: Inhibition of human NOMO-1 cell growth in a cell viability assay.

SH-4 = assay type: functional, cell-based, Homo sapiens; conditions: Homo sapiens, SH-4;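 note: growth inhibition of SH-4 cells, read out with a cell viability assay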
Description: SANGER: Inhibition of human SH-4 cell growth in a cell viability assay.

MeWo = assay type: functional, cell-based, Homo sapiens; conditions: Homo sapiens, MeWo;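 note: growth inhibition of MeWo cells, determined by a cell viability readout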
Description: SANGER: Inhibition of human Mewo cell growth in a cell viability assay.

HCC38 = assay type: functional, cell-based, Homo sapiens; conditions: Homo sapiens, HCC38;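 note: cell viability assay on the human HCC38 cell line, with IC50 marking the concentration that inhibits cell growth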
Description: SANGER: Inhibition of human HCC38 cell growth in a cell viability assay.

KU812 cell line = assay type: functional, cell-based; conditions: Homo sapiens;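 note: growth inhibition of KU812 cells, read out with a cell viability assay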
Description: SANGER: Inhibition of human KU812 cell growth in a cell viability assay.

HC-1 = assay type: functional, cell-based; conditions: Homo sapiens;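 note: growth inhibition of HC-1 cells measured by a cell viability assay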
Description: SANGER: Inhibition of human HC-1 cell growth in a cell viability assay.

KOSC-2 = assay type: functional, cell-based, Homo sapiens; conditions: Homo sapiens, KOSC-2;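 note: growth inhibition of KOSC-2 cells, read out by a cell viability assay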
Description: SANGER: Inhibition of human KOSC-2 cell growth in a cell viability assay.

CHP-212 = assay type: functional, cell-based, Homo sapiens; conditions: Homo sapiens, CHP-212
Description: SANGER: Inhibition of human CHP-212 cell growth in a cell viability assay.

5637 = assay type: functional, cell-based, Homo sapiens; conditions: Homo sapiens
Description: SANGER: Inhibition of human 5637 cell growth in a cell viability assay.

IST-SL1 = assay type: functional, cell-based, Homo sapiens; conditions: Homo sapiens, IST-SL1;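 note: growth inhibition of human IST-SL1 cells, read out with a cell viability assay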
Description: SANGER: Inhibition of human IST-SL1 cell growth in a cell viability assay.

OVCAR-4 = assay type: functional, cell-based, Homo sapiens; conditions: Homo sapiens, OVCAR-4;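 note: growth inhibition of human OVCAR-4 cells, measured with a cell viability assay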
Description: SANGER: Inhibition of human OVCAR-4 cell growth in a cell viability assay.

CTV-1 = assay type: functional, cell-based; conditions: Homo sapiens;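 note: growth inhibition of the cell line, read out with a cell viability assay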
Description: SANGER: Inhibition of human CTV-1 cell growth in a cell viability assay.

ES8 = assay type: functional, cell-based, Homo sapiens; conditions: Homo sapiens, ES8;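 note: growth inhibition of human ES8 cells, read out with a cell viability assay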
Description: SANGER: Inhibition of human ES8 cell growth in a cell viability assay.

CWR22R = assay type: functional, cell-based, Homo sapiens; conditions: Homo sapiens, 22Rv1;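 note: growth inhibition of 22Rv1 cells, read out with a cell viability assay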
Description: SANGER: Inhibition of human 22RV1 cell growth in a cell viability assay.

NCI-H510A = assay type: functional, cell-based; conditions: Homo sapiens;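 note: growth inhibition of NCI-H510A cells, read out with a cell viability assay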
Description: SANGER: Inhibition of human NCI-H510A cell growth in a cell viability assay.

NOS-1 = assay type: functional, cell-based, Homo sapiens; conditions: Homo sapiens, NOS-1;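 note: growth inhibition of the human NOS-1 cell line, read out with a cell viability assay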
Description: SANGER: Inhibition of human NOS-1 cell growth in a cell viability assay.

NCI-H226 = assay type: functional, cell-based, Homo sapiens; conditions: Homo sapiens, NCI-H226;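 note: cell viability read-out used to gauge growth inhibition of the cells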
Description: SANGER: Inhibition of human NCI-H226 cell growth in a cell viability assay.

KGN = assay type: functional, cell-based, Homo sapiens; conditions: Homo sapiens, KGN;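 note: growth inhibition of KGN cells, read out with a cell viability assay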
Description: SANGER: Inhibition of human KGN cell growth in a cell viability assay.

VA-ES-BJ = assay type: functional, cell-based, Homo sapiens; conditions: Homo sapiens, VA-ES-BJ;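 note: growth inhibition of the VA-ES-BJ cell line, read out by a cell viability assay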
Description: SANGER: Inhibition of human VA-ES-BJ cell growth in a cell viability assay.

MPP-89 = assay type: functional, cell-based, Homo sapiens; conditions: Homo sapiens, MPP-89;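 note: growth inhibition of human MPP-89 cells, read out with a cell viability assay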
Description: SANGER: Inhibition of human MPP-89 cell growth in a cell viability assay.

8-MG-BA = assay type: functional, cell-based, Homo sapiens; conditions: Homo sapiens, 8-MG-BA;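 note: growth inhibition of 8-MG-BA cells, read out with a cell viability assay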
Description: SANGER: Inhibition of human 8-MG-BA cell growth in a cell viability assay.

MC116 = assay type: functional, cell-based; conditions: Homo sapiens;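 note: growth inhibition of MC116 cells, read out with a cell viability assay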
Description: SANGER: Inhibition of human MC116 cell growth in a cell viability assay.

MFE-280 = assay type: functional, cell-based, Homo sapiens; conditions: Homo sapiens, MFE-280;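 note: growth inhibition of MFE-280 cells, determined with a cell viability readout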
Description: SANGER: Inhibition of human MFE-280 cell growth in a cell viability assay.

MOLT-16 = assay type: functional, cell-based; conditions: Homo sapiens;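 note: growth inhibition of human MOLT-16 cells, read out with a cell viability assay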
Description: SANGER: Inhibition of human MOLT-16 cell growth in a cell viability assay.

SNU-449 = assay type: functional, cell-based, Homo sapiens; conditions: Homo sapiens, SNU-449
Description: SANGER: Inhibition of human SNU-449 cell growth in a cell viability assay.

HO-1-N-1 = assay type: functional, cell-based, Homo sapiens; conditions: Homo sapiens, HO-1-N-1;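 note: growth inhibition of human HO-1-N-1 cells, read out with a cell viability assay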
Description: SANGER: Inhibition of human HO-1-N-1 cell growth in a cell viability assay.

KS-1 = assay type: functional, cell-based, Homo sapiens; conditions: Homo sapiens, KS-1;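 note: growth inhibition of KS-1 cells, read out with a cell viability assay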
Description: SANGER: Inhibition of human KS-1 cell growth in a cell viability assay.

RXF 393 = assay type: functional, cell-based; conditions: Homo sapiens;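 note: growth inhibition of human RXF 393 cells, read out with a cell viability assay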
Description: SANGER: Inhibition of human RXF393 cell growth in a cell viability assay.

HH = assay type: functional, cell-based; conditions: Homo sapiens
Description: SANGER: Inhibition of human HH cell growth in a cell viability assay.

MLMA = assay type: functional, cell-based, Homo sapiens; conditions: Homo sapiens, MLMA;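 note: growth inhibition of MLMA cells (human), determined through a cell viability readout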
Description: SANGER: Inhibition of human MLMA cell growth in a cell viability assay.

IGROV-1 = assay type: functional, cell-based, Homo sapiens; conditions: Homo sapiens, IGROV-1;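 note: reduction of IGROV-1 cell growth, read out with a viability assay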
Description: SANGER: Inhibition of human IGROV-1 cell growth in a cell viability assay.

KP-N-YS = assay type: functional, cell-based; conditions: Homo sapiens;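 note: cell viability assay measuring inhibition of cell line growth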
Description: SANGER: Inhibition of human KP-N-YS cell growth in a cell viability assay.

LB1047-RCC = assay type: functional, cell-based, Homo sapiens; conditions: Homo sapiens, LB1047-RCC;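 note: inhibition of cell growth, determined with a cell viability assay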
Description: SANGER: Inhibition of human LB1047-RCC cell growth in a cell viability assay.

OS-RC-2 = assay type: functional, cell-based, Homo sapiens; conditions: Homo sapiens, OS-RC-2;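 note: growth inhibition of human OS-RC-2 cells, measured by a cell viability assay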
Description: SANGER: Inhibition of human OS-RC-2 cell growth in a cell viability assay.

KARPAS-45 = assay type: functional, cell-based; conditions: Homo sapiens;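 note: inhibition of cell line growth, read out through a viability assay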
Description: SANGER: Inhibition of human KARPAS-45 cell growth in a cell viability assay.

ML-2 = assay type: functional, cell-based; conditions: Homo sapiens;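 note: growth inhibition of ML-2 cells, measured with a cell viability readout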
Description: SANGER: Inhibition of human ML-2 cell growth in a cell viability assay.

CCC1=C[C@@H]2CN(C1)Cc1c([nH]c3ccccc13)[C@@](C(=O)OC)(c1cc3c(cc1OC)N(C)[C@H]1[C@@](O)(C(=O)OC)[C@H](OC(C)=O)[C@]4(CC)C=CCN5CC[C@]31[C@@H]54)C2 [VINORELBINE]
IC50 (SKG-IIIa): > 0.064 µM | IC50 (COR-L105): 0.0309 µM | IC50 (OCUB-M): 0.00443 µM | IC50 (NCI-H292): 0.00505 µM | IC50 (UO-31): > 0.064 µM | IC50 (DMS-273): 0.00271 µM | IC50 (LB2518-MEL): > 0.064 µM | IC50 (SiHa): > 0.064 µM | IC50 (HuP-T3): > 0.064 µM | IC50 (U-118-MG): > 0.064 µM | IC50 (MZ1-PC): 0.0177 µM | IC50 (TCC-SUP): 0.0271 µM | IC50 (EW-13): 0.00662 µM | IC50 (HCC70): 0.0306 µM | IC50 (KE-37): 0.00442 µM | IC50 (WM-115): > 0.064 µM | IC50 (SF-295): 0.012 µM | IC50 (NOMO-1): 0.019 µM | IC50 (SH-4): 0.0155 µM | IC50 (MeWo): 0.0152 µM | IC50 (HCC38): 0.00487 µM | IC50 (KU812 cell line): 0.0093 µM | IC50 (HC-1): 0.00389 µM | IC50 (KOSC-2): > 0.064 µM | IC50 (CHP-212): 0.0246 µM | IC50 5637: 0.00755 µM | IC50 (IST-SL1): 0.0393 µM | IC50 (OVCAR-4): 0.00175 µM | IC50 (CTV-1): 0.00501 µM | IC50 (ES8): 0.00272 µM | IC50 (CWR22R): 0.00879 µM | IC50 (NCI-H510A): 0.0155 µM | IC50 (NOS-1): 0.0413 µM | IC50 (NCI-H226): 0.025 µM | IC50 (KGN): 0.00705 µM | IC50 (VA-ES-BJ): 0.00423 µM | IC50 (MPP-89): > 0.064 µM | IC50 (8-MG-BA): 0.00337 µM | IC50 (MC116): 0.0155 µM | IC50 (MFE-280): > 0.064 µM | IC50 (MOLT-16): 0.0128 µM | IC50 (SNU-449): > 0.064 µM | IC50 (HO-1-N-1): 0.00665 µM | IC50 (KS-1): 0.00147 µM | IC50 (RXF 393): 0.00506 µM | IC50 (HH): 0.00888 µM | IC50 (MLMA): 0.0369 µM | IC50 (IGROV-1): 0.0022 µM | IC50 (KP-N-YS): 0.0218 µM | IC50 (LB1047-RCC): > 0.064 µM | IC50 (OS-RC-2): 0.0343 µM | IC50 (KARPAS-45): 0.00574 µM | IC50 (ML-2): 0.00432 µM
